Patent publication US8815872B2, “Macrocyclics pyrimidines as aurora kinase inhibitors” (Merck Patent GmbH, priority 2008, dated 2014)

Experiments:
[1] = target: Aurora B (Homo sapiens, UniProt Q96GD4); experiment: Aurora B enzyme assay (Caliper); type: biochemical
Protocol: (§1) The Aurora and other kinase assays described here were performed on two Caliper Life Sciences systems, the LC3000 and the Desktop Profiler. These provide data on enzyme activity via measurement of the relative amounts of phosphorylated or unphosphorylated fluorescently labelled substrate peptide at the end of an enzymatic reaction. These different states of peptide are resolved by applying a potential difference across the sample. The presence of a charged phosphate group on the product (as opposed to the substrate) causes a different peptide mobility between the two peptides. This is visualized by excitation of a fluorescent label on the substrate and product peptides and represented as peaks within the analysis software.

[2] = target: T1, Aurora A (Homo sapiens, UniProt O14965); experiment: Aurora A enzyme assay (Caliper LC3000 mobility shift); type: biochemical
T1 construct: N-terminal GST fusion with full length Aurora A (1-403 amino acids); purchased Carna Biosciences 05-101
T1 sequence (O14965 1-403): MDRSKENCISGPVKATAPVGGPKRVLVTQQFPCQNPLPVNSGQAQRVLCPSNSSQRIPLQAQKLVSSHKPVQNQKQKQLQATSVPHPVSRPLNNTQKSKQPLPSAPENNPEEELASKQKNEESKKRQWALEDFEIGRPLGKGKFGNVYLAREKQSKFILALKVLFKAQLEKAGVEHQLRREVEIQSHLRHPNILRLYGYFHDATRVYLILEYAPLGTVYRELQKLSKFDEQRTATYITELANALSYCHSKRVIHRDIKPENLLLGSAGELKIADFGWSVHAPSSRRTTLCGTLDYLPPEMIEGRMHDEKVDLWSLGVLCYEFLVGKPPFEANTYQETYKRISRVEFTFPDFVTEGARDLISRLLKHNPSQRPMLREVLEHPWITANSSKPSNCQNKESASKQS
Protocol: as §1
For example, in order to measure inhibitor activity of Aurora A inhibitors in the Caliper Life Sciences LC3000, a TTP Mosquito liquid handling instrument was used to place […] of an appropriate concentration of inhibitor in 100% DMSO (for a dose response curve calculation) into each well of a 384-well plate. To this reaction components were added to a final volume of 25 μl: • 0.067 ng/μl GST-Aurora A (Carna Biosciences 05-101. N-terminal GST fusion with full length Aurora A (1-403 amino acids), accession number NP_940835.1). • 15 μM ATP (Fluka, 02055) • 1 mM DTT (Sigma, D0632) • 1 mM MgC12 (Sigma, M1028) • 1 μM substrate peptide (sequence FITC-LRRASLG-(CONH2), synthesized by Tufts Peptide Synthesis service. • 100 mM HEPES pH 7.5 (Calbiochem, 391338) • 0.015% Brij-35 (Sigma, B4184)
The reaction was incubated for 90 min at 25° C., and then stopped by the addition of 70 μl of Stop buffer (100 mM HEPES pH 7.5, 0.015% Brij-35, 10 mM EDTA (Sigma, E7889)).
The plate was read on a Caliper LC 3000 in an Off-Chip mobility shift assay format, using the following parameters for a 12-sipper chip: screening pressure −1.8 psi, upstream voltage −2700, downstream voltage −1000. These conditions cause unphosphorylated substrate and phosphorylated product peptide to resolve as separate peaks allowing direct measurement of percentage of conversion of substrate to product. The percent conversion was plotted against concentration of inhibitor to produce a sigmoidal dose response curve, from which an IC50 was calculated using XLFit for Microsoft Excel.

[3] = tested on: MiaPaca2; experiment: Cellular activity MiaPaca2; type: cell-based; conditions: Homo sapiens, MIA PaCa-2
Protocol: (§2) The susceptibility of a particular cell to treatment with the compounds according to the invention was determined by in vitro tests. Typically, a culture of the cell was combined with a compound according to the invention at various concentrations for a period of time that was sufficient to allow the active agents to induce cell death or to inhibit migration, usually between about one hour and one week. In vitro testing was carried out using cultivated cells from a biopsy sample. The viable cells remaining after the treatment then were counted.

[4] = tested on: A549; experiment: Cellular activity A549; type: cell-based; conditions: Homo sapiens
Protocol: as §2

Chain of Aurora B (Q96GD4 whole entry): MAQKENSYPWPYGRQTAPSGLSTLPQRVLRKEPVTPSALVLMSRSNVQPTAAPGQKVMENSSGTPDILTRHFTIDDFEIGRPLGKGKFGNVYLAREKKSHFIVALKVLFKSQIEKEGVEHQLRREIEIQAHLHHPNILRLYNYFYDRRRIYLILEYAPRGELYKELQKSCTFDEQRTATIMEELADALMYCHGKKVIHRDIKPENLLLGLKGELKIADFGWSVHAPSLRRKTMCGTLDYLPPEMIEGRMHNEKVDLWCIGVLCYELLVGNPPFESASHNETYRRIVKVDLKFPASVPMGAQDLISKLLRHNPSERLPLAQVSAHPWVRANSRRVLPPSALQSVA

| SMILES | IC50 [1] [nM] | IC50 [2] [nM] | IC50 [3] [nM] | IC50 [4] [nM] |
| --- | --- | --- | --- | --- |
| Fc1cnc2nc1NC1CCCC(C1)OC/C=C/COc1cccc(c1)N2 (centres unmarked) | 101 to 1000 | 101 to 1000 |  |  |
| Fc1cnc2nc1NC1CCCC(C1)OC/C=C\COc1cccc(c1)N2 (centres unmarked) | 101 to 1000 | 101 to 1000 |  |  |
| Fc1cnc2nc1N[C@H]1CCC[C@@H](C1)OCCCCOc1cccc(c1)N2 |  | 1000 to 6250 |  |  |
| Fc1cnc2nc1N[C@@H]1CCC[C@H](C1)OCCCCOc1cccc(c1)N2 |  | 101 to 1000 |  |  |
| O[C@@H]1COc2cccc(c2)Nc2ncc(F)c(n2)NC2CCCC(C2)OC[C@@H]1O (some centres unmarked) |  | 101 to 1000 |  |  |
| O[C@@H]1COC2CCCC(C2)Nc2nc(ncc2F)Nc2cccc(c2)OC[C@@H]1O (some centres unmarked) |  | 101 to 1000 |  |  |
| Fc1cnc2nc1NC1CCC(CC1)OC/C=C/COc1cccc(c1)N2 |  | 101 to 1000 |  |  |
| Fc1cnc2nc1NC1CCC(CC1)OC/C=C\COc1cccc(c1)N2 | > 6250 | 101 to 1000 |  |  |
| CCC1CC2[C@H](O)C(O)COc3cccc(c3)Nc3ncc(F)c(n3)N[C@H]2[C@H]1C(N)=O (some centres unmarked) |  | 1000 to 6250 |  |  |
| NC(=O)[C@H]1C([C@@H](O)CO)CC2[C@H]1Nc1nc(ncc1F)Nc1cccc(c1)OC[C@H](O)[C@H]2O (some centres unmarked) |  | 1000 to 6250 |  |  |
| NC(=O)[C@H]1C([C@@H](O)CO)CC2C(O)[C@H](O)COc3cccc(c3)Nc3ncc(F)c(n3)N[C@H]21 (some centres unmarked) |  | 1000 to 6250 |  |  |
| NC(=O)[C@H]1[C@H]2C[C@H]3[C@H]1Nc1nc(ncc1F)Nc1cccc(c1)C(O)CS[C@@H]3C2 (some centres unmarked) |  | 1 to 100 | 101 to 1000 | 101 to 1000 |
| NC(=O)[C@H]1[C@H]2C[C@H]3[C@H]1Nc1nc(ncc1F)Nc1cccc(c1)CC[S+]([O-])[C@@H]3C2 (some centres unmarked) | 1 to 100 | 1 to 100 | 1000 to 6250 | 1000 to 6250 |
| NC(=O)[C@H]1[C@H]2C[C@H]3[C@H]1Nc1nc(ncc1F)Nc1cccc(c1)CCS(=O)(=O)[C@@H]3C2 | 1 to 100 | 1 to 100 | 1000 to 6250 | 1000 to 6250 |
| NC(=O)[C@H]1[C@@H]2CC3NNC(=O)Cc4cccc(c4)Nc4ncc(F)c(n4)N[C@@H]1[C@@H]3C2 (some centres unmarked) | 1 to 100 | 1 to 100 | > 6250 | > 6250 |
| NC[C@H]1[C@H]2C[C@H]3[C@H]1Nc1nc(ncc1F)Nc1cccc(c1)C(O)CS[C@@H]3C2 (some centres unmarked) |  | 1000 to 6250 | > 6250 | > 6250 |
| NC(=O)[C@H]1[C@H]2C[C@H]3[C@H]1Nc1nc(ncc1F)Nc1cccc(c1)/C=C\S[C@@H]3C2 |  | 101 to 1000 |  |  |
| C=CC(=O)NC[C@H]1[C@H]2C[C@H]3[C@H]1Nc1nc(ncc1F)Nc1cccc(c1)C(O)CS[C@@H]3C2 (some centres unmarked) |  | 101 to 1000 | > 6250 | > 6250 |
| NC(=O)[C@H]1[C@H]2C[C@H]3[C@H]1Nc1nc(ncc1F)Nc1cccc(c1)[C@H](OCCO)CS[C@@H]3C2 |  | 1 to 100 | 1000 to 6250 | 1000 to 6250 |
| NC(=O)[C@H]1[C@H]2C[C@H]3[C@H]1Nc1nc(ncc1F)Nc1cnn(c1)CCS[C@@H]3C2 |  | 1 to 100 |  |  |
| NC(=O)[C@H]1[C@@H]2CC3CNC(=O)Cc4cccc(c4)Nc4ncc(F)c(n4)N[C@@H]1[C@@H]3C2 (some centres unmarked) |  | 1 to 100 |  |  |
| CN1CCN(c2ccc3cc2C(=O)CS[C@@H]2C[C@@H]4C[C@H]2[C@@H](Nc2nc(ncc2F)N3)[C@H]4C(N)=O)CC1 |  | 1 to 100 | 1000 to 6250 | 1000 to 6250 |
